Results from ChEMBL document CHEMBL3991601, “The target landscape of clinical kinase drugs” (Science, 2017).
Activity calls are given as the source filed them. Rule as the data show it, for most assays here: actives have a measured Kd and inactives only a lower limit.

target: T1, Serine/threonine-protein kinase NLK (Homo sapiens, UniProt Q9UBE8)
T1 sequence (Q9UBE8 whole entry): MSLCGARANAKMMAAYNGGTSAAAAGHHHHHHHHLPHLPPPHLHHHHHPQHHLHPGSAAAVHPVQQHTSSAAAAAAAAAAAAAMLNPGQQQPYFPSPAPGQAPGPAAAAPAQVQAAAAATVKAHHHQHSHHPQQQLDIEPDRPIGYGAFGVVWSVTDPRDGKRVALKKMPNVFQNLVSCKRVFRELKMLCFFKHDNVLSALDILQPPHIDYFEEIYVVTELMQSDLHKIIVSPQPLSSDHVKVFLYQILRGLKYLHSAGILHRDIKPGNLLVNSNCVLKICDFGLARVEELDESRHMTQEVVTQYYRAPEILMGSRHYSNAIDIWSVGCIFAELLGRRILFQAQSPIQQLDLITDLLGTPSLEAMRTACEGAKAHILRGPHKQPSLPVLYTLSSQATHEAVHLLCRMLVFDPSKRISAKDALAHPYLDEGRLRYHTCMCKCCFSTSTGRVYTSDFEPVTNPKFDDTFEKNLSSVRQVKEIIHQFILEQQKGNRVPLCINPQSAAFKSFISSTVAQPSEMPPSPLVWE
Also: in the data inactive means no Kd found up to 30 µM.

SMILES	Kd
CNC(=O)CN1CCC(Oc2cc3c(Nc4cccc(Cl)c4F)ncnc3cc2OC)CC1 [SAPITINIB]	> 30 µM (inactive)
C[C@@H]1CN(Cc2ccc(F)cc2)[C@@H](C)CN1C(=O)c1cc2c(C(=O)C(=O)N(C)C)cn(C)c2cc1Cl [TALMAPIMOD]	> 30 µM (inactive)
CN1CCC(COc2cnc(-c3cccc(Cn4nc(-c5cccc(C#N)c5)ccc4=O)c3)nc2)CC1 [TEPOTINIB]	> 30 µM (inactive)
O=c1sn(-c2cccc3ccccc23)c(=O)n1Cc1ccccc1 [TIDEGLUSIB]	> 30 µM (inactive)

target: T2, Activin receptor type-1B (Homo sapiens, UniProt P36896)
T2 sequence (P36896 whole entry): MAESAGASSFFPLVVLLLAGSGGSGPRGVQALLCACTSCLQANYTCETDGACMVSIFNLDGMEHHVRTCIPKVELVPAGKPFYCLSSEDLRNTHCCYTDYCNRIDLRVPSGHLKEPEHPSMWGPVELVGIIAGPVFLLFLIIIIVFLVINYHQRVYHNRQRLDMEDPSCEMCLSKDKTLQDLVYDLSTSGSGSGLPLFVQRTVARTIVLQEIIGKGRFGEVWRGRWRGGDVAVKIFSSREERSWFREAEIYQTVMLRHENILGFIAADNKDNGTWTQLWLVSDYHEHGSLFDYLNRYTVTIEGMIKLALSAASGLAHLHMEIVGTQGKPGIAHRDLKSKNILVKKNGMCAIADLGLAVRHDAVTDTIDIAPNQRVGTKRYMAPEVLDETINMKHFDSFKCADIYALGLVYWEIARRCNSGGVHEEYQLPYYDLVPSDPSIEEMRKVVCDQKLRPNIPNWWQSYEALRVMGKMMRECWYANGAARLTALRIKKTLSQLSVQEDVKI

SMILES	Kd
CNC(=O)CN1CCC(Oc2cc3c(Nc4cccc(Cl)c4F)ncnc3cc2OC)CC1 [SAPITINIB]	> 30 µM (inactive)
C[C@@H]1CN(Cc2ccc(F)cc2)[C@@H](C)CN1C(=O)c1cc2c(C(=O)C(=O)N(C)C)cn(C)c2cc1Cl [TALMAPIMOD]	> 30 µM (inactive)
CN1CCC(COc2cnc(-c3cccc(Cn4nc(-c5cccc(C#N)c5)ccc4=O)c3)nc2)CC1 [TEPOTINIB]	> 30 µM (inactive)
O=c1sn(-c2cccc3ccccc23)c(=O)n1Cc1ccccc1 [TIDEGLUSIB]	> 30 µM (inactive)

target: Eukaryotic translation initiation factor 2-alpha kinase 1 (Homo sapiens, UniProt Q9BQI3)

SMILES	Kd
CNC(=O)CN1CCC(Oc2cc3c(Nc4cccc(Cl)c4F)ncnc3cc2OC)CC1 [SAPITINIB]	> 30 µM (inactive)
C[C@@H]1CN(Cc2ccc(F)cc2)[C@@H](C)CN1C(=O)c1cc2c(C(=O)C(=O)N(C)C)cn(C)c2cc1Cl [TALMAPIMOD]	> 30 µM (inactive)
CN1CCC(COc2cnc(-c3cccc(Cn4nc(-c5cccc(C#N)c5)ccc4=O)c3)nc2)CC1 [TEPOTINIB]	> 30 µM (inactive)
O=c1sn(-c2cccc3ccccc23)c(=O)n1Cc1ccccc1 [TIDEGLUSIB]	> 30 µM (inactive)

target: Tyrosine-protein kinase FRK (Homo sapiens, UniProt P42685)
Sequence (P42685 whole entry): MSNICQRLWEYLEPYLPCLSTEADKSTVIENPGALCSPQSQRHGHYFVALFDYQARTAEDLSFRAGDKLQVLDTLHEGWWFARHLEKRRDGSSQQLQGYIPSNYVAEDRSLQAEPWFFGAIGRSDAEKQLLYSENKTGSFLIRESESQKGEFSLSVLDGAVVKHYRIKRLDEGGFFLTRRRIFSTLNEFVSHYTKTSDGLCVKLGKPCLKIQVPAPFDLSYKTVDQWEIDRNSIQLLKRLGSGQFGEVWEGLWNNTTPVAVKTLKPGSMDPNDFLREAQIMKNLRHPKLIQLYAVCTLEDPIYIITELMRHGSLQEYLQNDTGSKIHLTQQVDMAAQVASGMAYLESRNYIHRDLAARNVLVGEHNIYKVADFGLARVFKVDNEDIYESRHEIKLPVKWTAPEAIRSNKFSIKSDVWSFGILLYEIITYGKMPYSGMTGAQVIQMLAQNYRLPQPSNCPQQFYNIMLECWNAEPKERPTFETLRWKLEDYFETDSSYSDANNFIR

SMILES	Kd
CNC(=O)CN1CCC(Oc2cc3c(Nc4cccc(Cl)c4F)ncnc3cc2OC)CC1 [SAPITINIB]	> 30 µM (inactive)
C[C@@H]1CN(Cc2ccc(F)cc2)[C@@H](C)CN1C(=O)c1cc2c(C(=O)C(=O)N(C)C)cn(C)c2cc1Cl [TALMAPIMOD]	> 30 µM (inactive)
CN1CCC(COc2cnc(-c3cccc(Cn4nc(-c5cccc(C#N)c5)ccc4=O)c3)nc2)CC1 [TEPOTINIB]	> 30 µM (inactive)
O=c1sn(-c2cccc3ccccc23)c(=O)n1Cc1ccccc1 [TIDEGLUSIB]	> 30 µM (inactive)

target: Serine/threonine-protein kinase N1 (Homo sapiens, UniProt Q16512)
Sequence (Q16512 whole entry): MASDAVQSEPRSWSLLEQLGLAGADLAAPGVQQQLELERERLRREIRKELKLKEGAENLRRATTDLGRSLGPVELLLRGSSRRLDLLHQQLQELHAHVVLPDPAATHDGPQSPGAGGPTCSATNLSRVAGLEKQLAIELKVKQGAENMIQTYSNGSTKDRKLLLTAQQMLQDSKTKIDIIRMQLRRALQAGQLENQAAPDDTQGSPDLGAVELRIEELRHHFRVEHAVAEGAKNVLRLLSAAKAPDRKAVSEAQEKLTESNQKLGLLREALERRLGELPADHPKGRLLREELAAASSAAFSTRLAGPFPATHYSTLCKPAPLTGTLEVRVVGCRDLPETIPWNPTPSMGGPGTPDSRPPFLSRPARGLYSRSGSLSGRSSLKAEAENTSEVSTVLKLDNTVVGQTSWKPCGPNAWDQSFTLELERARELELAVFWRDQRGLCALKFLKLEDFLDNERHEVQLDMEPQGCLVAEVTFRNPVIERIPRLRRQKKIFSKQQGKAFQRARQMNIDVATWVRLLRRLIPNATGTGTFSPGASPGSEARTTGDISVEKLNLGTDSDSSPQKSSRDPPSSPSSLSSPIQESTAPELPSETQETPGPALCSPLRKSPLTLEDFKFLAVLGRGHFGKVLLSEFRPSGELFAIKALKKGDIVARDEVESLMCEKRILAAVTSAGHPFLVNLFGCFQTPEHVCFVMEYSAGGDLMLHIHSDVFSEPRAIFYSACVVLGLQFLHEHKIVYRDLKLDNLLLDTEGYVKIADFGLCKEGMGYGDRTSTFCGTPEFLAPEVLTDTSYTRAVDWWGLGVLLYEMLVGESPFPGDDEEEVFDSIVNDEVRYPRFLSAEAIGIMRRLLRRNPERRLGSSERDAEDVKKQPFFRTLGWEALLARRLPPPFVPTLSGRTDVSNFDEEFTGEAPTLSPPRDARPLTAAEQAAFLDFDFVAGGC

SMILES	Kd
CNC(=O)CN1CCC(Oc2cc3c(Nc4cccc(Cl)c4F)ncnc3cc2OC)CC1 [SAPITINIB]	> 30 µM (inactive)
C[C@@H]1CN(Cc2ccc(F)cc2)[C@@H](C)CN1C(=O)c1cc2c(C(=O)C(=O)N(C)C)cn(C)c2cc1Cl [TALMAPIMOD]	> 30 µM (inactive)
CN1CCC(COc2cnc(-c3cccc(Cn4nc(-c5cccc(C#N)c5)ccc4=O)c3)nc2)CC1 [TEPOTINIB]	> 30 µM (inactive)
O=c1sn(-c2cccc3ccccc23)c(=O)n1Cc1ccccc1 [TIDEGLUSIB]	> 30 µM (inactive)

target: T3, Septin-9 (Homo sapiens, UniProt Q9UHD8)
T3 sequence (Q9UHD8 whole entry): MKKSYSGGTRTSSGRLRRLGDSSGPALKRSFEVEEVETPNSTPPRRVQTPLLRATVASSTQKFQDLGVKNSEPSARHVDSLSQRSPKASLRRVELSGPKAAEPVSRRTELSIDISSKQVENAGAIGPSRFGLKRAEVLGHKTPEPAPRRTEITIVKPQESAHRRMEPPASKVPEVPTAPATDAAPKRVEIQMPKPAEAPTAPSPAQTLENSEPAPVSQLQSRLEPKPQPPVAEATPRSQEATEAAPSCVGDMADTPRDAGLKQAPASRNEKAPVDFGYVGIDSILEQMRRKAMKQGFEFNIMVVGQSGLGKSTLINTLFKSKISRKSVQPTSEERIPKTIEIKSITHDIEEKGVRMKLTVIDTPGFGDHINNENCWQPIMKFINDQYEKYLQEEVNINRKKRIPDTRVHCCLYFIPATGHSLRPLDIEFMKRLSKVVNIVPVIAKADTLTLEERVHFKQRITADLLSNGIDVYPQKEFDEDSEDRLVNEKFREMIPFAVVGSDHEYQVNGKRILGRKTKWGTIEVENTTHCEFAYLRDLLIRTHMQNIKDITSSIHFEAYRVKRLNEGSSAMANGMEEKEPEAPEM

SMILES	Kd
CNC(=O)CN1CCC(Oc2cc3c(Nc4cccc(Cl)c4F)ncnc3cc2OC)CC1 [SAPITINIB]	> 30 µM (inactive)
C[C@@H]1CN(Cc2ccc(F)cc2)[C@@H](C)CN1C(=O)c1cc2c(C(=O)C(=O)N(C)C)cn(C)c2cc1Cl [TALMAPIMOD]	> 30 µM (inactive)
CN1CCC(COc2cnc(-c3cccc(Cn4nc(-c5cccc(C#N)c5)ccc4=O)c3)nc2)CC1 [TEPOTINIB]	> 30 µM (inactive)
O=c1sn(-c2cccc3ccccc23)c(=O)n1Cc1ccccc1 [TIDEGLUSIB]	> 30 µM (inactive)

target: NADH dehydrogenase [ubiquinone] 1 alpha subcomplex subunit 13 (Homo sapiens, UniProt Q9P0J0)
Sequence (Q9P0J0 whole entry, one chain of several): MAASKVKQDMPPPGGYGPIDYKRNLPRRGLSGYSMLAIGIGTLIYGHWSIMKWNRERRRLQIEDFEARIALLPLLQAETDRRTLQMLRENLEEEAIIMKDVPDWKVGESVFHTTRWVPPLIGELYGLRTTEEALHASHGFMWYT

SMILES	Kd
CNC(=O)CN1CCC(Oc2cc3c(Nc4cccc(Cl)c4F)ncnc3cc2OC)CC1 [SAPITINIB]	> 30 µM (inactive)
C[C@@H]1CN(Cc2ccc(F)cc2)[C@@H](C)CN1C(=O)c1cc2c(C(=O)C(=O)N(C)C)cn(C)c2cc1Cl [TALMAPIMOD]	> 30 µM (inactive)
CN1CCC(COc2cnc(-c3cccc(Cn4nc(-c5cccc(C#N)c5)ccc4=O)c3)nc2)CC1 [TEPOTINIB]	> 30 µM (inactive)
O=c1sn(-c2cccc3ccccc23)c(=O)n1Cc1ccccc1 [TIDEGLUSIB]	> 30 µM (inactive)

target: Casein kinase I isoform epsilon (Homo sapiens, UniProt P49674)
Sequence (P49674 whole entry, canonical isoform): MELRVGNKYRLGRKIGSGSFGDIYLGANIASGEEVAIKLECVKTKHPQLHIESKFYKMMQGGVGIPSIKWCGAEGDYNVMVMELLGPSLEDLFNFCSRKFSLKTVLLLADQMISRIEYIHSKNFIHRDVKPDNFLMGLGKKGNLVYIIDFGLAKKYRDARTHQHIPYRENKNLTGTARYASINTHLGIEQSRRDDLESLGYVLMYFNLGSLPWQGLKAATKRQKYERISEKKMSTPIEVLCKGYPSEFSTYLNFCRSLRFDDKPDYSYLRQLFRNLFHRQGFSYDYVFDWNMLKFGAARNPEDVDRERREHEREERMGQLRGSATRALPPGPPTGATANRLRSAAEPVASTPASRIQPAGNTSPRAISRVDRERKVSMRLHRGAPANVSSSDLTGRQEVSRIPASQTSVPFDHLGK

SMILES	Kd
CNC(=O)CN1CCC(Oc2cc3c(Nc4cccc(Cl)c4F)ncnc3cc2OC)CC1 [SAPITINIB]	> 30 µM (inactive)
C[C@@H]1CN(Cc2ccc(F)cc2)[C@@H](C)CN1C(=O)c1cc2c(C(=O)C(=O)N(C)C)cn(C)c2cc1Cl [TALMAPIMOD]	> 30 µM (inactive)
CN1CCC(COc2cnc(-c3cccc(Cn4nc(-c5cccc(C#N)c5)ccc4=O)c3)nc2)CC1 [TEPOTINIB]	> 30 µM (inactive)
O=c1sn(-c2cccc3ccccc23)c(=O)n1Cc1ccccc1 [TIDEGLUSIB]	> 30 µM (inactive)

target: Serine/threonine-protein kinase MRCK alpha (Homo sapiens, UniProt Q5VT25)
Sequence (Q5VT25 whole entry): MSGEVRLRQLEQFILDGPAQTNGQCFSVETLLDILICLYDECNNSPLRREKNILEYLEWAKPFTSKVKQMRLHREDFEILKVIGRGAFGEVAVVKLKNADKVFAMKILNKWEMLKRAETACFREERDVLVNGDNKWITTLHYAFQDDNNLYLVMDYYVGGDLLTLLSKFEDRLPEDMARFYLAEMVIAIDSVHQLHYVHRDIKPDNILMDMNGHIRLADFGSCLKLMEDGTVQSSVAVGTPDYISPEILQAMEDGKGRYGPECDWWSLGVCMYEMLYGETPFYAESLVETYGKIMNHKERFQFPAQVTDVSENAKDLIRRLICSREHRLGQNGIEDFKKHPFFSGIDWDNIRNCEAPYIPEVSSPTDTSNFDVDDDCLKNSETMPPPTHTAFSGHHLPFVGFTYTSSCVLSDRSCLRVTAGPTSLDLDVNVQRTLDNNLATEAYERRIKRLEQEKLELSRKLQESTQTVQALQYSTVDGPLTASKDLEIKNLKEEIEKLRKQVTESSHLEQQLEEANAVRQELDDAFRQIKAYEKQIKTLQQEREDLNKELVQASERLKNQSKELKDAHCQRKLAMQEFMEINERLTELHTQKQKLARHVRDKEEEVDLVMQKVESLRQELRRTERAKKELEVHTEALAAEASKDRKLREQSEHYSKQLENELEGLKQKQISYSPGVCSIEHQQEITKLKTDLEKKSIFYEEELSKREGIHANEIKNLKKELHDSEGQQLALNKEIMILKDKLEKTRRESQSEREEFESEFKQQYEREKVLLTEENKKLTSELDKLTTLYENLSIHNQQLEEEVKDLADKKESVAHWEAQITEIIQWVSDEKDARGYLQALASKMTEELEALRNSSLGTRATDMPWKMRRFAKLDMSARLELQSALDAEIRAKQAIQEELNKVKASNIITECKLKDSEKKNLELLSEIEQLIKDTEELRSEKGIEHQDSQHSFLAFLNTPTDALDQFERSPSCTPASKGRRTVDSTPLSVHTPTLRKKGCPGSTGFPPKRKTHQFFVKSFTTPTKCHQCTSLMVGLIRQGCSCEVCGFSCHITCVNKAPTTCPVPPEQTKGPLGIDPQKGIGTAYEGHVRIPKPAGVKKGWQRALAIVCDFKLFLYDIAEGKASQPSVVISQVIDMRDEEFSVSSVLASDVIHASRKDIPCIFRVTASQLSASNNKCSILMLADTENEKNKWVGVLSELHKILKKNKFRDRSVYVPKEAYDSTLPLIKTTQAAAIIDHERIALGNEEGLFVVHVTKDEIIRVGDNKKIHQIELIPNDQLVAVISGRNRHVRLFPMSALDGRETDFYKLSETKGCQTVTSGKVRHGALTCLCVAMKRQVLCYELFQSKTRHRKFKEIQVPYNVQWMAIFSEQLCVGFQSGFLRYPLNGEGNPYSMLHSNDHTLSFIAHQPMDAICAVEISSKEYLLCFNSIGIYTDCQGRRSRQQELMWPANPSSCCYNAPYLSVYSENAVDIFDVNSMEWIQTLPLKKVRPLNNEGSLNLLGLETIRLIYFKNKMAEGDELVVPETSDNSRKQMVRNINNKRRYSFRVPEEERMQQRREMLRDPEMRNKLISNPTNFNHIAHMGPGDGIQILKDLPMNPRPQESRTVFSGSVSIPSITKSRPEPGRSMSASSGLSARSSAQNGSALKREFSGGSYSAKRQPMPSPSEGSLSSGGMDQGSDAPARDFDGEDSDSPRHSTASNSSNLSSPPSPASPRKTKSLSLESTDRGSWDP

SMILES	Kd
CNC(=O)CN1CCC(Oc2cc3c(Nc4cccc(Cl)c4F)ncnc3cc2OC)CC1 [SAPITINIB]	> 30 µM (inactive)
C[C@@H]1CN(Cc2ccc(F)cc2)[C@@H](C)CN1C(=O)c1cc2c(C(=O)C(=O)N(C)C)cn(C)c2cc1Cl [TALMAPIMOD]	> 30 µM (inactive)
CN1CCC(COc2cnc(-c3cccc(Cn4nc(-c5cccc(C#N)c5)ccc4=O)c3)nc2)CC1 [TEPOTINIB]	> 30 µM (inactive)
O=c1sn(-c2cccc3ccccc23)c(=O)n1Cc1ccccc1 [TIDEGLUSIB]	> 30 µM (inactive)

target: Elongation factor Tu, mitochondrial (Homo sapiens, UniProt P49411)

SMILES	Kd
CNC(=O)CN1CCC(Oc2cc3c(Nc4cccc(Cl)c4F)ncnc3cc2OC)CC1 [SAPITINIB]	> 30 µM (inactive)
C[C@@H]1CN(Cc2ccc(F)cc2)[C@@H](C)CN1C(=O)c1cc2c(C(=O)C(=O)N(C)C)cn(C)c2cc1Cl [TALMAPIMOD]	> 30 µM (inactive)
CN1CCC(COc2cnc(-c3cccc(Cn4nc(-c5cccc(C#N)c5)ccc4=O)c3)nc2)CC1 [TEPOTINIB]	> 30 µM (inactive)
O=c1sn(-c2cccc3ccccc23)c(=O)n1Cc1ccccc1 [TIDEGLUSIB]	> 30 µM (inactive)

target: Dual specificity mitogen-activated protein kinase kinase 1 (Homo sapiens, UniProt Q02750)
Sequence (Q02750 whole entry): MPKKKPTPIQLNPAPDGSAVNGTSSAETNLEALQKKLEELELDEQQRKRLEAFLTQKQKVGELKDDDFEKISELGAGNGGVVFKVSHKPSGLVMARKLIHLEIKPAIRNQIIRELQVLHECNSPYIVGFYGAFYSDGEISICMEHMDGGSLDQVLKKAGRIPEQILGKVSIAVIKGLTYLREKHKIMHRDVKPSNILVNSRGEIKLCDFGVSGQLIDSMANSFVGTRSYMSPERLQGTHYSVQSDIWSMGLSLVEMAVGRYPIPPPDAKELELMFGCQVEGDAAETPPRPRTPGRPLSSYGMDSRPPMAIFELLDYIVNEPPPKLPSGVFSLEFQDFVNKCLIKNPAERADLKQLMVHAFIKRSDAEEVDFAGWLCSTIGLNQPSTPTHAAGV

SMILES	Kd
CNC(=O)CN1CCC(Oc2cc3c(Nc4cccc(Cl)c4F)ncnc3cc2OC)CC1 [SAPITINIB]	> 30 µM (inactive)
C[C@@H]1CN(Cc2ccc(F)cc2)[C@@H](C)CN1C(=O)c1cc2c(C(=O)C(=O)N(C)C)cn(C)c2cc1Cl [TALMAPIMOD]	> 30 µM (inactive)
CN1CCC(COc2cnc(-c3cccc(Cn4nc(-c5cccc(C#N)c5)ccc4=O)c3)nc2)CC1 [TEPOTINIB]	> 30 µM (inactive)
O=c1sn(-c2cccc3ccccc23)c(=O)n1Cc1ccccc1 [TIDEGLUSIB]	> 30 µM (inactive)

target: Mitogen-activated protein kinase 9 (Homo sapiens, UniProt P45984)
Sequence (P45984 whole entry): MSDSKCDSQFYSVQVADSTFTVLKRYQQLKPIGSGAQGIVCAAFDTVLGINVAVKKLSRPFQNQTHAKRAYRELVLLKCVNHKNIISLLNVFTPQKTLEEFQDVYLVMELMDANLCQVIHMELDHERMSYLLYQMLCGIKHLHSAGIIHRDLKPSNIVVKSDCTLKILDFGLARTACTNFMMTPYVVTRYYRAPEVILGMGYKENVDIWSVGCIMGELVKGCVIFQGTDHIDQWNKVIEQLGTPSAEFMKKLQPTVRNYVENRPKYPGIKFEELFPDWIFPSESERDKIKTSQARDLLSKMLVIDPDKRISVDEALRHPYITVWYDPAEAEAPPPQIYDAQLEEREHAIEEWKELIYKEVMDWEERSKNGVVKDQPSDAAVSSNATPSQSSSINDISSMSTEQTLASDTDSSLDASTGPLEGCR

SMILES	Kd
CNC(=O)CN1CCC(Oc2cc3c(Nc4cccc(Cl)c4F)ncnc3cc2OC)CC1 [SAPITINIB]	> 30 µM (inactive)
C[C@@H]1CN(Cc2ccc(F)cc2)[C@@H](C)CN1C(=O)c1cc2c(C(=O)C(=O)N(C)C)cn(C)c2cc1Cl [TALMAPIMOD]	> 30 µM (inactive)
CN1CCC(COc2cnc(-c3cccc(Cn4nc(-c5cccc(C#N)c5)ccc4=O)c3)nc2)CC1 [TEPOTINIB]	> 30 µM (inactive)
O=c1sn(-c2cccc3ccccc23)c(=O)n1Cc1ccccc1 [TIDEGLUSIB]	> 30 µM (inactive)
